# Source: patent US20250353855A1, “HETEROCYCLIC AND HETEROARYL COMPOUNDS FOR TREATING HUNTINGTON'S DISEASE” (PTC THERAPEUTICS, INC., priority 2022, published 2025)
# System: Endogenous Huntingtin Protein
# Assay: Endogenous Huntingtin Protein Assay (ELISA-based MSD electrochemiluminescence)
# Format: cell-based
# Settings: MSD plates coated with MW1 (expanded polyglutamine) or MAB2166 capture antibody; lysates
# Protocol: Compounds of Formula (T) were tested using the Meso Scale Discovery (MSD) Assay provided in International Application No. PCT/US2016/066042, filed on Dec. 11, 2016 and claiming priority to U.S. Provisional Application 62/265,652 filed on Dec. 10, 2015, the entire contents of which are incorporated herein by reference.
# The Endogenous Huntingtin Protein assay used in Example 1 was developed using the ELISA-based MSD electrochemiluminescence assay platform.
# Meso Scale Discovery (MSD) 96-well or 384-well plates were coated overnight at 4° C. with MW1 (expanded polyglutamine) or MAB2166 monoclonal antibody (for capture) at a concentration of 1 μg/mL in PBS (30 μL per well). Plates were then washed three times with 300 μL wash buffer (0.05% Tween-20 in PBS) and blocked (100 μL blocking buffer; 5% BSA in PBS) for 4-5 hours at room temperature with rotational shaking and then washed three times with wash buffer.
# Samples (25 μL) were transferred to the antibody-coated MSD plate and incubated overnight at 4° C. After removal of the lysates, the plate was washed three times with wash buffer, and 25 μL of #5656S (Cell signaling; rabbit monoclonal) secondary antibody (diluted to 0.25 μg/mL in 0.05% Tween-20 in blocking buffer) was added to each well and incubated with shaking for 1 Hour at room temperature. Following incubation with the secondary antibody, the wells were rinsed with wash buffer after which 25 μL of goat anti-rabbit SULFO TAG secondary detection antibody (required aspect of the MSD system) (diluted to 0.25 μg/mL in 0.05% Tween-20 in blocking buffer) was added to each well and incubated with shaking for 1 hour at room temperature. After rinsing three times with wash buffer, 150 μL of read buffer T with surfactant (MSD) were added to each empty well, and the plate was imaged on a SI 6000 imager (MSD) according to manufacturers' instructions provided for 96- or 384-well plates.
row,Compound,IC50
1,"Cc1ncc2cc(-c3cc4ccn([C@H]5CC(C)(C)NC(C)(C)[C@H]5F)c4nn3)c(O)cc2n1 [Cpd 15, 6-{7-[(3S,4S)-3-fluoro-2,2,6,6-tetramethylpiperidin-4-yl]-7H-pyrrolo[2,3-c]pyridazin-3-yl}-2-methylquinazolin-7-ol]",< 0.1 µM
2,"COc1cnc2cc(-c3cc4ccn([C@H]5CC(C)(C)NC(C)(C)[C@H]5F)c4nn3)c(O)cc2n1 [Cpd 33, 7-{7-[(3S,4S)-3-fluoro-2,2,6,6-tetramethylpiperidin-4-yl]-7H-pyrrolo[2,3-c]pyridazin-3-yl}-3-methoxyquinoxalin-6-ol]",< 0.1 µM
3,"CSc1nc2cc(O)c(-c3cc4c(nn3)N([C@H]3CC(C)(C)NC(C)(C)[C@H]3F)CC4)cc2s1 [Cpd 98, 6-{7-[(3S,4S)-3-fluoro-2,2,6,6-tetramethylpiperidin-4-yl]-6,7-dihydro-5H-pyrrolo[2,3-c]pyridazin-3-yl}-2-(methylsulfanyl)-1,3-benzothiazol-5-ol]",< 0.1 µM

# Same assay, conditions: MSD plates coated with MW1 (expanded polyglutamine) or MAB2166 capture antibody; lysates; read-out: IC50
row,Compound,IC50
1,"Cc1nc2cc(-c3cc4c(nn3)N([C@H]3CC(C)(C)NC(C)(C)[C@H]3F)CC4)c(O)c(F)c2o1 [Cpd 103, 7-fluoro-5-{7-[(3S,4S)-3-fluoro-2,2,6,6-tetramethylpiperidin-4-yl]-6,7-dihydro-5H-pyrrolo[2,3-c]pyridazin-3-yl}-2-methyl-1,3-benzoxazol-6-ol]",< 0.1 µM
2,"CSc1nc2cc(O)c(-c3cc4ccn([C@H]5CC(C)(C)NC(C)(C)[C@H]5F)c4nn3)cc2s1 [Cpd 99, 6-{7-[(3S,4S)-3-fluoro-2,2,6,6-tetramethylpiperidin-4-yl]-7H-pyrrolo[2,3-c]pyridazin-3-yl}-2-(methylsulfanyl)-1,3-benzothiazol-5-ol]",< 0.1 µM
3,"COc1nc2cc(O)c(-c3cc4c(nn3)N([C@H]3CC(C)(C)NC(C)(C)[C@H]3F)CC4)cc2s1 [Cpd 97, 6-{7-[(3S,4S)-3-fluoro-2,2,6,6-tetramethylpiperidin-4-yl]-6,7-dihydro-5H-pyrrolo[2,3-c]pyridazin-3-yl}-2-methoxy-1,3-benzothiazol-5-ol]",< 0.1 µM
4,"Cc1cc(=O)oc2cc(O)c(-c3cc4c(nn3)N([C@H]3CC(C)(C)NC(C)(C)[C@H]3F)CC4)cc12 [Cpd 65, 6-{7-[(3S,4S)-3-fluoro-2,2,6,6-tetramethylpiperidin-4-yl]-6,7-dihydro-5H-pyrrolo[2,3-c]pyridazin-3-yl}-7-hydroxy-4-methyl-2H-1-benzopyran-2-one]",< 0.1 µM
5,"Oc1cc2nccnc2cc1-c1cc2c(nn1)N([C@H]1CCNC3(CC3)C1)CC2 [Cpd 49, 7-{7-[(7S)-4-azaspiro[2.5]octan-7-yl]-6,7-dihydro-5H-pyrrolo[2,3-c]pyridazin-3-yl}quinoxalin-6-ol]",< 0.1 µM
6,"CC1(C)C[C@H](n2ccc3cc(-c4cc5c(Cl)ccnc5cc4O)nnc32)[C@H](F)C(C)(C)N1 [Cpd 21, 4-chloro-6-{7-[(3S,4S)-3-fluoro-2,2,6,6-tetramethylpiperidin-4-yl]-7H-pyrrolo[2,3-c]pyridazin-3-yl}quinolin-7-ol]",0.1 to 0.5 µM
7,"Cc1nc2cc(O)c(-c3cc4c(nn3)N([C@H]3CC(C)(C)NC(C)(C)[C@H]3F)CC4)cc2s1 [Cpd 52, 6-{7-[(3S,4S)-3-fluoro-2,2,6,6-tetramethylpiperidin-4-yl]-6,7-dihydro-5H-pyrrolo[2,3-c]pyridazin-3-yl}-2-methyl-1,3-benzothiazol-5-ol]",< 0.1 µM
8,"Cc1nc2cc(O)c(-c3cc4c(nn3)N([C@@H]3CC(C)(C)NC5(CC5)C3)CC4)cc2o1 [Cpd 95, 6-{7-[(7R)-5,5-dimethyl-4-azaspiro[2.5]octan-7-yl]-6,7-dihydro-5H-pyrrolo[2,3-c]pyridazin-3-yl}-2-methyl-1,3-benzoxazol-5-ol]",< 0.1 µM
9,"Cc1nc2cc(O)c(-c3cc4ccn([C@H]5C[C@@H]6CC[C@@H](N6)[C@H]5F)c4nn3)cc2s1 (single isomer, unassigned) [Cpd 10, 6-{7-[(1R,2R,3S,5S)-2-fluoro-8-azabicyclo[3.2.1]octan-3-yl]-7H-pyrrolo[2,3-c]pyridazin-3-yl}-2-methyl-1,3-benzothiazol-5-ol or 6-{7-[(1S,2S,3R,5R)-2-fluoro-8-azabicyclo[3.2.1]octan-3-yl]-7H-pyrrolo[2,3-c]pyridazin-3-yl}-2-methyl-1,3-benzothiazol-5-ol]",< 0.1 µM
10,"Cc1nc2cc(O)c(-c3cc4c(nn3)N([C@@H]3CCNC(C)(C)[C@@H]3F)CC4)cc2o1 (single isomer, unassigned) [Cpd 64, 6-{7-[(3R,4R)-3-fluoro-2,2-dimethylpiperidin-4-yl]-6,7-dihydro-5H-pyrrolo[2,3-c]pyridazin-3-yl}-2-methyl-1,3-benzoxazol-5-ol or 6-{7-[(3S,4S)-3-fluoro-2,2-dimethylpiperidin-4-yl]-6,7-dihydro-5H-pyrrolo[2,3-c]pyridazin-3-yl}-2-methyl-1,3-benzoxazol-5-ol]",< 0.1 µM
11,"Cc1nc2cc(O)c(-c3cc4ccn([C@H]5CC(C)(C)NC(C)(C)[C@H]5F)c4nn3)cc2s1 [Cpd 4, 6-{7-[(3S,4S)-3-fluoro-2,2,6,6-tetramethylpiperidin-4-yl]-7H-pyrrolo[2,3-c]pyridazin-3-yl}-2-methyl-1,3-benzothiazol-5-ol]",< 0.1 µM

# The remaining lines, values ahead:
row,IC50,Compound
1,< 0.1 µM,"Cc1nc2cc(-c3cc4ccn([C@H]5CC(C)(C)NC(C)(C)[C@H]5F)c4nn3)c(O)cc2s1 [Cpd 8, 5-{7-[(3S,4S)-3-fluoro-2,2,6,6-tetramethylpiperidin-4-yl]-7H-pyrrolo[2,3-c]pyridazin-3-yl}-2-methyl-1,3-benzothiazol-6-ol]"
2,< 0.1 µM,"Cc1cc(=O)c2cc(-c3cc4c(nn3)N([C@H]3CC(C)(C)NC(C)(C)[C@H]3F)CC4)c(O)cc2o1 [Cpd 68, 6-{7-[(3S,4S)-3-fluoro-2,2,6,6-tetramethylpiperidin-4-yl]-6,7-dihydro-5H-pyrrolo[2,3-c]pyridazin-3-yl}-7-hydroxy-2-methyl-4H-1-benzopyran-4-one]"
3,0.1 to 0.5 µM,"Cc1nc2cc(-c3cc4ccn([C@@H]5CCNC6(CCC6)[C@@H]5F)c4nn3)c(O)cc2s1 (single isomer, unassigned) [Cpd 34, 5-{7-[(8R,9R)-9-fluoro-5-azaspiro[3.5]nonan-8-yl]-7H-pyrrolo[2,3-c]pyridazin-3-yl}-2-methyl-1,3-benzothiazol-6-ol or 5-{7-[(8S,9S)-9-fluoro-5-azaspiro[3.5]nonan-8-yl]-7H-pyrrolo[2,3-c]pyridazin-3-yl}-2-methyl-1,3-benzothiazol-6-ol]"
4,< 0.1 µM,"Cn1nnc2cc(O)c(-c3cc4c(nn3)N([C@H]3CC(C)(C)NC(C)(C)[C@H]3F)CC4)cc21 [Cpd 92, 6-{7-[(3S,4S)-3-fluoro-2,2,6,6-tetramethylpiperidin-4-yl]-6,7-dihydro-5H-pyrrolo[2,3-c]pyridazin-3-yl}-1-methyl-1H-benzotriazol-5-ol]"
5,< 0.1 µM,"Cn1nc2cc(O)c(-c3cc4ccn([C@H]5CC(C)(C)NC(C)(C)[C@H]5F)c4nn3)cc2n1 [Cpd 37, 6-{7-[(3S,4S)-3-fluoro-2,2,6,6-tetramethylpiperidin-4-yl]-7H-pyrrolo[2,3-c]pyridazin-3-yl}-2-methyl-2H-benzotriazol-5-ol]"
6,< 0.1 µM,"Cc1nc2cc(-c3cc4c(nn3)N([C@H]3CC(C)(C)NC(C)(C)[C@H]3F)CC4)c(O)cc2[nH]1 [Cpd 46, 5-{7-[(3S,4S)-3-fluoro-2,2,6,6-tetramethylpiperidin-4-yl]-6,7-dihydro-5H-pyrrolo[2,3-c]pyridazin-3-yl}-2-methyl-1H-benzimidazol-6-ol]"
7,< 0.1 µM,"Cc1nc2cc(O)c(-c3cc4c(nn3)N([C@H]3CC(C)(C)NC(C)(C)[C@H]3F)CC4)cc2nc1C [Cpd 51, 7-{7-[(3S,4S)-3-fluoro-2,2,6,6-tetramethylpiperidin-4-yl]-6,7-dihydro-5H-pyrrolo[2,3-c]pyridazin-3-yl}-2,3-dimethylquinoxalin-6-ol]"
8,< 0.1 µM,"CCc1nc2cc(-c3cc4ccn([C@H]5CC(C)(C)NC(C)(C)[C@H]5F)c4nn3)c(O)cc2s1 [Cpd 14, 2-ethyl-5-{7-[(3S,4S)-3-fluoro-2,2,6,6-tetramethylpiperidin-4-yl]-7H-pyrrolo[2,3-c]pyridazin-3-yl}-1,3-benzothiazol-6-ol]"
9,< 0.1 µM,"Cc1ncc2cc(O)c(-c3cc4ccn([C@H]5CC(C)(C)NC(C)(C)[C@H]5F)c4nn3)cc2n1 [Cpd 39, 7-{7-[(3S,4S)-3-fluoro-2,2,6,6-tetramethylpiperidin-4-yl]-7H-pyrrolo[2,3-c]pyridazin-3-yl}-2-methylquinazolin-6-ol]"
10,< 0.1 µM,"Cc1ncc2cc(O)c(-c3cc4c(nn3)N([C@H]3CC(C)(C)NC(C)(C)[C@H]3F)CC4)cc2n1 [Cpd 87, 7-{7-[(3S,4S)-3-fluoro-2,2,6,6-tetramethylpiperidin-4-yl]-6,7-dihydro-5H-pyrrolo[2,3-c]pyridazin-3-yl}-2-methylquinazolin-6-ol]"
11,< 0.1 µM,"Cc1cc(=O)c2cc(O)c(-c3cc4c(nn3)N([C@H]3CC(C)(C)NC(C)(C)[C@H]3F)CC4)cc2o1 [Cpd 83, 7-{7-[(3S,4S)-3-fluoro-2,2,6,6-tetramethylpiperidin-4-yl]-6,7-dihydro-5H-pyrrolo[2,3-c]pyridazin-3-yl}-6-hydroxy-2-methyl-4H-1-benzopyran-4-one]"
